Like-named read-outs stand apart in the source and are kept apart here.
How the values were obtained:
[1] = Metabolite profile in plasma, liver and HT29 tumor after i.p. SN30000; format: in vivo, NIH-III mice; conditions: SN30000 186 mg/kg i.p.; for Metabolite/SN30000 peak area, Tumor: HT29 tumor
Description: Mouse plasma and tissue homogenates, prepared from tissue samples in two volumes of ice-cold PBS using a TissueLyser II (Qiagen Sciences, Germantown, MD, United States) with 30 Hz oscillation frequency for 1 min, were processed by precipitating proteins with 3 vol MeOH and centrifuging (13,000 g, 4°C for 10 min). Supernatants were diluted into 3 vol water and analyzed with an Agilent model 6460 LC-MS/MS with an in-line photodiode array absorbance detector. Chromatographic separation was performed on a Zorbax Eclipse C18 column (100 mm × 3.0 mm, 1.8 μm; Agilent Technologies) at 35°C with a flow rate of 0.6 mL/min, with positive or negative mode electrospray ionization. The mobile phase was a gradient constructed using 80% MeCN/20% water/0.1% formic acid v/v/v (A) and 0.1% formic acid in water (B) from 10% A to 80% A with a total run time of […]. The gradient profile was: 0–4 min, 10% A; 4–11 min linear increase to 60% A; 11–12 min to 80% A; held for 1 min, returned to 10% A over 0.5 min and held for 2 min before the next sample injection. Absorbance spectra were collected from 230 to 600 nm with a reference wavelength of 550 nm. The mass/charge (m/z) ratio was scanned from 100 to 800 with a fragmentor voltage of 120 V. MS^2 with various collision energies was used for further characterization of some metabolites.
Metabolites were investigated in plasma, liver and HT29 tumors following i.p. dosing of female NIH-III mice with SN30000 at 186 mg/kg, which represents its previously determined MTD for this route and mouse strain ([Gu et al., 2014]). Representative chromatograms are shown in Supplementary Figure 1. A total of 19 metabolites (M1–M19) were provisionally identified (Figure 1 and Table 1). Assignments were confirmed by comparison with synthetic standards in the case of the 1-oxide M14 and nor-oxide M13, which have previously been reported as murine metabolites of SN30000 ([Wang et al., 2012]) and for M15 which is known to be the major photodegradation product of SN30000 ([Gu et al., 2014]). In addition, the previously unreported metabolite M18, which is the main plasma metabolite at late times, was isolated from pooled plasma of mice dosed with M14 in sufficient quantity for characterization by NMR (Supplementary Data). This identified M18 as an oxidation product of M14 with an alkanoic acid side-chain (Figure 1), an assignment that was confirmed by synthesis of the authentic compound which was identical by HPLC retention time, absorbance spectrum, elemental analysis, mass spectrum and NMR spectroscopy.

[2] = in vivo; conditions: female, NIH-III nude, mouse, plasma, ip
Description: SN30000, M14 and M18 dosing solutions were prepared fresh in normal saline, filtered through 0.45 μm Acrodisc filters (Pall Life Sciences, Port Washington, NY, United States), protected from light in amber vials, and used within 3 h. Doses are expressed as mg of free base equivalent for SN30000 and M14, and free acid in the case of M18. […] Blood samples were collected from mice at various times by cardiac puncture, seconds after cervical dislocation, into ice-cold tubes containing K2EDTA. These were placed on ice immediately after collection and centrifuged (3,000 g, 3 min) within 10 min to harvest plasma. Plasma and tissues were rapidly frozen in liquid nitrogen before storage at -80°C for subsequent bioanalysis.
Non-compartmental parameters of 3H-mannitol for the data
shown in Figure 9 where female NIH-III nude mice were dosed with 3H-mannitol at
from mannitol concentrations as described in Methods for SN30000 and its metabolites.
Co-administered with Administered 16hr

[3] = Compartmental plasma PK model; format: in vivo
Source text: This model, shown schematically in Figure 9, is based on total (free + bound) plasma concentrations; the major metabolites (M14, M13, and M18) are explicit and clearance of SN30000 occurs only by reduction to M14. The i.p. bioavailability of SN30000 was modeled with an additional term for loss from the peritoneal compartment (kloss).

[4] = system: SiHa cells; assay: Oxygen consumption rate, Seahorse XFe96 analyser; format: cell-based, human; conditions: 200 µM, mitochondrial stress test
Description: (OCR) of the human cervical carcinoma cell line SiHa and a previously described (Guise et al., 2007) POR-overexpressing transfectant SiHa/POR, determined using a Seahorse XFe96 Analyser (Agilent). Cells were passaged in αMEM plus 5% FCS, with 1 µM puromycin to maintain POR expression in the SiHa/POR cell line. Cells were ty pically seeded at 4×10^4 cells/well in Seahorse 96 well plates (without puromycin) and ~ 18 hr later the medium was changed to Seahorse medium with 10 mM glucose and 2 mM glutamine (SMGG) adjusted to pH 7.35 (150 µl/well). Plates were degassed to remove CO2, and inhibitors were added serially using the Seahorse injectors (25 µl/injection) with rotenone (final concentration 0.5 µM) typically added at the start of the 30 min equilibration in the flux analyser. OCR was monitored for three 3 min periods following each drug addition. […]
injection 1 and at each subsequent injection to maintain concentrations at 200 µM continuously during the test. The control received equivalent injections of SMGG without drugs. In all cases (including controls), injection 2 added oligomycin to give 0.5 µM, injection 3 added carbonyl cyanide […] (FCCP) to 0.5 µM, and injection 4 added rotenone and antimy cin to 1 µM each. V alues are means and errors are standard deviations, for 6 replicate cultures. […]
suppressed by M14, both in the presence (injection 1) and absence (injection 4) of respiratory […]
presence or absence of 0.5 µM rotenone when SN30000 is added cumulatively to give the indicated concentrations. Values are means and SEM for 5 replicate cultures. The fall in OCR after transient stimulation at each addition of SN30000 is consistent with the pattern for CHO/POR cells in Supplementary Fig. 4A.
C: Concentration dependence of increases in OCR by SiHa/POR cells, measured at the first […]
effects noted above. Left panel: SN30000. Right panel: TPZ. Values are means and errors are […]

[5] = system: NIH-III mice; assay: Core body (rectal) temperature and acute clinical signs after dosing; format: in vivo
Description: Supplementary Figure 3. Initial rates of core temperature decrease in (untreated) NIH-III mice post- mortem: co mparison with initial temperature change ante- mortem following treatment with benzotriazine oxides at their MTD. Temperature was measured in rectu m and liver over 15 min. Initial rates of temperature loss (°C/min) were: post- mortem (rectum):
(rectum) 0.33. The rectal temperature loss following dosing with M14 (135 mg/kg) was 0.6 °C/min (not shown for clarity). The drug-induced changes are redrawn from Fig. 4.

[6] = system: NIH-III mice; assay: Mouse toxicity: MTD, survival and body weight loss after single i.p. doses; format: in vivo; conditions: i.p., NIH-III mice, as stated for the temperature study (Figure 4)
Source text: Mouse toxicity SN30000 and metabolites M14 and M18: survival and body weight loss following single i.p. doses to NIH-III mice.
Cmpd Dose Body weight nadir Body weight nadir
(µmol/kg) Survivala Survivala
Day Weight loss (%)b Day Weight loss (%)b […]
a Survival reported as a fraction of total nu mber of animal treated at a giv en dose, with an observation time of 14 days. Deaths were predominantly due to humane ter mination because of persistent clinical signs or body weight loss > 15% of pretreatment values. b Body weig ht loss at nadir, relative to pre-treatment values. Values are mean and errors are […]
c Data from Gu et al., 2014 d Mouse died <24 hr after dosing.

[7] = administered 16hr after SN30000 0 mg/kg
[8] = at the highest i.p. dose of co-administered SN30000
[9] = co-administered with SN30000 18.6 mg/kg i.p.
[10] = co-administered with SN30000 92.8 mg/kg i.p.
[11] = co-administered with SN30000 186 mg/kg i.p.

[O-][n+]1nc(CCCN2CCOCC2)nc2cc3c(cc21)CC=C3 [M5]
Metabolite/SN30000 peak area, Tumor [1]: 0.04 | Metabolite/SN30000 peak area, Liver [1]: 0.64 | Metabolite/SN30000 peak area, Plasma [1]: 0.05

[O-][n+]1nc(CCCNCCO)[n+]([O-])c2cc3c(cc21)CCC3 [M7]
Metabolite/SN30000 peak area, Tumor [1]: 0.06 | Metabolite/SN30000 peak area, Liver [1]: 0.17 | Metabolite/SN30000 peak area, Plasma [1]: 0.06

OCCNCCCc1nnc2cc3c(cc2n1)CCC3 [M11]
Metabolite/SN30000 peak area, Tumor [1]: 0.06 | Metabolite/SN30000 peak area, Liver [1]: 0.34 | Metabolite/SN30000 peak area, Plasma [1]: 0.04

[O-][n+]1nc(CCCNCCO)nc2cc3c(cc21)CCC3 [M12]
Metabolite/SN30000 peak area, Tumor [1]: 0.16 | Metabolite/SN30000 peak area, Liver [1]: 1.06 | Metabolite/SN30000 peak area, Plasma [1]: 0.13

[O-][n+]1nc(CCC[N+]2([O-])CCOCC2)nc2cc3c(cc21)CCC3 [M15]
Metabolite/SN30000 peak area, Tumor [1]: 0.24 | Metabolite/SN30000 peak area, Liver [1]: 0.21 | Metabolite/SN30000 peak area, Plasma [1]: 0.26

O=C(O)CCc1n[n+]([O-])c2cc3c(cc2[n+]1[O-])CCC3 [M16]
Metabolite/SN30000 peak area, Tumor [1]: 0.49 | Metabolite/SN30000 peak area, Liver [1]: 0.34 | Metabolite/SN30000 peak area, Plasma [1]: 0.50

O=C(O)CCc1nnc2cc3c(cc2n1)CCC3 [M17]
Metabolite/SN30000 peak area, Tumor [1]: 0.14 | Metabolite/SN30000 peak area, Liver [1]: 0.12 | Metabolite/SN30000 peak area, Plasma [1]: 0.11

O=C1COCCN1CCCc1nc2cc3c(cc2[n+]([O-])n1)CCC3 [M19]
Metabolite/SN30000 peak area, Tumor [1]: 0.02 | Metabolite/SN30000 peak area, Liver [1]: 0.27 | Metabolite/SN30000 peak area, Plasma [1]: 0.03

OC[C@@H](O)[C@@H](O)[C@H](O)[C@H](O)CO [Mannitol, mannitol]
AUC (3H-mannitol 25 µmol/kg co-administered with SN30000 1.86 mg/kg i.p.): 16.1 µM.hr/L | AUC [7]: 17.5 µM.hr/L | AUC (administered 16hr after SN30000 18.6 mg/kg i.p.): 19.6 µM.hr/L | AUC (administered 16hr after SN30000 186 mg/kg i.p.): 20.4 µM.hr/L | Increase in AUC [8]: 3 fold | Increase in plasma half-life [8]: ~2 fold | AUC [9]: 17.9 µM.hr/L | AUC [10]: 36.2 µM.hr/L | AUC [11]: 44.5 µM.hr/L | Cmax ([2]; 18.6 mg/kg, administered 16hr after SN30000 18.6 mg/kg i.p.): 36.9 µM | half-life ([2]; 18.6 mg/kg, T1/2, administered 16hr after SN30000 18.6 mg/kg i.p.): 21 min | Cmax ([2]; 186 mg/kg, administered 16hr after SN30000 186 mg/kg i.p.): 33.2 µM | half-life ([2]; 186 mg/kg, T1/2, administered 16hr after SN30000 186 mg/kg i.p.): 23.2 min | Cmax [2, 7]: 31.7 µM | Cmax ([2]; co-administered with SN30000 1.86 mg/kg i.p.): 41.2 µM | Cmax [2, 9]: 43.5 µM | Cmax [2, 10]: 52.3 µM | Cmax [2, 11]: 51 µM | half-life ([2]; T1/2, administered 16hr after SN30000 0 mg/kg): 19.7 min | half-life ([2]; T1/2, co-administered with SN30000 1.86 mg/kg i.p.): 14.1 min | half-life ([2]; T1/2, co-administered with SN30000 18.6 mg/kg i.p.): 13.1 min | half-life ([2]; T1/2, co-administered with SN30000 92.8 mg/kg i.p.): 24.6 min | half-life ([2]; T1/2, co-administered with SN30000 186 mg/kg i.p.): 26.9 min | Central compartment volume V1 ([3]; 1-Oxide and Nor-oxide values fixed): 0.39 L/kg | Approximate % suppression per °C of CL ([3]; NIH-III, mouse, in vivo): ~24% | clearance ([3]; NIH-III, mouse, plasma, other: i.p. and i.v. datasets fitted simultaneously, model clearance of the compound, read-out: CL (converted)): 19.5 mL/min/kg | Vd ([3]; NIH-III, mouse, plasma, other: i.p. and i.v. datasets fitted simultaneously, read-out: Steady state volume VSS): 0.39 L/kg

Nc1n[n+]([O-])c2ccccc2[n+]1[O-] [TPZ, tirapazamine, reference compound]
Effect on oxygen consumption rate (OCR) [4]: increased | Initial rate of temperature loss (rectum) ([5]; i.p. SN30000 186 mg/kg, TPZ 31.7 mg/kg, M14 135 mg/kg): 0.33 °C/min | Effect on core body temperature ([5]; i.p. dosing at MTD, compared with SN30000): induced hypothermia | MTD [6]: 31.7 mg/kg
